Tests used:
[1] = tested on: barnyardgrass (Ec); experiment: Test Example 1: herbicidal effects by paddy field soil treatment; type: in vivo; details: 100 g of the active ingredient per 10 ares, 21st day after the application, index 0-5 of Table 47;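 note: grade of growth control; 5 = at least 90%; 4 = 70 to 90%; 3 = 50 to 70%; 2 = 30 to 50%; 1 = 10 to 30%; 0 = under 10%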
Summary of the method: (§1)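 Scoring of herbicidal effect came 21 days after application of 100 g active ingredient per 10 ares to flooded (3 cm) paddy-soil pots sown with barnyardgrass, monochoria and bulrush, kept in a greenhouse.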

[2] = tested on: bulrush (Sc); experiment: as above; type: in vivo; details: 100 g of the active ingredient per 10 ares, 21st day after the application, index 0-5 of Table 47;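 note: grade of growth control; 5 = at least 90%; 4 = 70 to 90%; 3 = 50 to 70%; 2 = 30 to 50%; 1 = 10 to 30%; 0 = under 10%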
Summary of the method: as §1

[3] = tested on: monochoria (Mo); experiment: as above; type: in vivo; details: 100 g of the active ingredient per 10 ares, 21st day after the application, index 0-5 of Table 47;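 note: grade of growth control; 5 = at least 90%; 4 = 70 to 90%; 3 = 50 to 70%; 2 = 30 to 50%; 1 = 10 to 30%; 0 = under 10%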
Summary of the method: as §1

[4] = tested on: Digitaria ciliaris (Di); experiment: Test Example 2: herbicidal effects by upland field soil treatment; type: in vivo; details: 100 g of the active ingredient per 10 ares;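 note: grade of growth control; 5 = at least 90%; 4 = 70 to 90%; 3 = 50 to 70%; 2 = 30 to 50%; 1 = 10 to 30%; 0 = under 10%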
Source text: (§2) (Test on Herbicidal Effects by Upland Field Soil Treatment)

[5] = tested on: barnyardgrass (Ec); experiment: as above; type: in vivo; details: 100 g of the active ingredient per 10 ares
Source text: as §2

[6] = tested on: common lambsquarters (Ch); experiment: as above; type: in vivo; details: 100 g of the active ingredient per 10 ares
Source text: as §2

[7] = tested on: pale smartweed (Po); experiment: as above; type: in vivo; details: 100 g of the active ingredient per 10 ares
Source text: as §2

[8] = tested on: rice flatsedge (Ci); experiment: as above; type: in vivo; details: 100 g of the active ingredient per 10 ares
Source text: as §2

[9] = tested on: slender amaranth (Am); experiment: as above; type: in vivo; details: 100 g of the active ingredient per 10 ares
Source text: as §2

[10] = tested on: Diaitaria ciliaris (Di); experiment: Test Example 3: herbicidal effects by upland field foliage treatment; type: in vivo; design: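 grade of growth control; 5 = at least 90%; 4 = 70 to 90%; 3 = 50 to 70%; 2 = 30 to 50%; 1 = 10 to 30%; 0 = under 10%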
Summary of the method: (§3)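 Using plants cultured for 2 weeks in a greenhouse from seed sown in soil-covered sand (pots 120 cm^2), the compounds were applied to foliage, and weed control was graded by standard criteria 14 days thereafter.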

[11] = tested on: barnyardgrass (Ec); experiment: as above; type: in vivo; design: scale not given here
Summary of the method: as §3

[12] = tested on: common lambsquarters (Ch); experiment: as above; type: in vivo; design: scale not given here
Summary of the method: as §3

[13] = tested on: pale smartweed (Po); experiment: as above; type: in vivo; design: scale not given here
Summary of the method: as §3

[14] = tested on: rice flatsedge (Ci); experiment: as above; type: in vivo; design: scale not given here
Summary of the method: as §3

[15] = tested on: slender amaranth (Am); experiment: as above; type: in vivo; design: scale not given here
Summary of the method: as §3

[16] = tested on: corn (Ze); experiment: Test Example 11: crop plant selectivity by upland field foliage treatment (corn), phytotoxicity; details: upland field foliage treatment, dose 1.6 g ai/10a, 14th day after treatment
Method: (§4) (Test on Crop Plant Selectivity by Upland Field Foliage Treatment)
(§5) In a plastic pot (surface area: 600 cm^2) filled with sand, corn (Ze), pale smartweed (Po), slender amaranth (Am), common lambsquarters (Ch) and China jute (Ab) were sown and cultured in a green house for 2 weeks. […] The plants were then cultured in a green house, and the evaluation of the herbicidal effects and phytotoxicity was conducted on the 14th day after the treatment in accordance with the standards as identified in Table 47.

[17] = tested on: China jute (Ab); experiment: Test Example 11: crop plant selectivity by upland field foliage treatment (corn), herbicidal effects; type: in vivo; design: scale not given here; details: upland field foliage treatment (corn test), dose 1.6 g ai/10a, 14th day after treatment
Method: as §4, §5

[18] = tested on: common lambsquarters (Ch); experiment: as above; type: in vivo; design: scale not given here; details: upland field foliage treatment (corn test), dose 1.6 g ai/10a, 14th day after treatment
Method: as §4, §5

[19] = tested on: pale smartweed (Po); experiment: as above; type: in vivo; design: scale not given here; details: upland field foliage treatment (corn test), dose 1.6 g ai/10a, 14th day after treatment
Method: as §4, §5

[20] = tested on: slender amaranth (Am); experiment: as above; type: in vivo; design: scale not given here; details: upland field foliage treatment (corn test), dose 1.6 g ai/10a, 14th day after treatment
Method: as §4, §5

[21] = tested on: cotton (Go); experiment: Test Example 4: crop plant selectivity by upland field soil treatment (cotton), phytotoxicity; type: in vivo; design: scale not given here; details: dose 6.3 g ai/10 a, evaluated 21st day after application
Summary of the method: (§6)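 Upland soil treatment: crop and weed seeds in sand pots under a soil cover, compound applied to soil, greenhouse-grown, rated visually 21 d later.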

[22] = tested on: China jute (Ab); experiment: Test Example 4: crop plant selectivity by upland field soil treatment (cotton), herbicidal effects; type: in vivo; design: scale not given here; details: dose 6.3 g ai/10 a, evaluated 21st day after application
Summary of the method: as §6

[23] = tested on: common lambsquarters (Ch); experiment: as above; type: in vivo; design: scale not given here; details: dose 6.3 g ai/10 a, evaluated 21st day after application
Summary of the method: as §6

[24] = tested on: green foxtail (Se); experiment: as above; type: in vivo; design: scale not given here; details: dose 6.3 g ai/10 a, evaluated 21st day after application
Summary of the method: as §6

[25] = tested on: pale smartweed (Po); experiment: as above; type: in vivo; design: scale not given here; details: dose 6.3 g ai/10 a, evaluated 21st day after application
Summary of the method: as §6

[26] = tested on: slender amaranth (Am); experiment: as above; type: in vivo; design: scale not given here; details: dose 6.3 g ai/10 a, evaluated 21st day after application
Summary of the method: as §6

[27] = tested on: wheat (Tr); experiment: Test Example 5: crop plant selectivity by upland field soil treatment (wheat), phytotoxicity; type: in vivo; design: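 grade of crop injury; 5 = at least 90%; 4 = 70 to 90%; 3 = 50 to 70%; 2 = 30 to 50%; 1 = 10 to 30%; 0 = under 10%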; details: dose 6.3 g ai/10a, 21st day after application
Summary of the method: (§7)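 Scores are visual ratings of herbicidal effect or wheat phytotoxicity, recorded on the 21st day after soil treatment of pots sown with wheat and weeds and kept in a greenhouse.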

[28] = tested on: China jute (Ab); experiment: Test Example 5: crop plant selectivity by upland field soil treatment (wheat), herbicidal effects; type: in vivo; design: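 grade of growth control; 5 = at least 90%; 4 = 70 to 90%; 3 = 50 to 70%; 2 = 30 to 50%; 1 = 10 to 30%; 0 = under 10%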; details: dose 6.3 g ai/10a, 21st day after application
Summary of the method: as §7

[29] = tested on: common lambsquarters (Ch); experiment: as above; type: in vivo; design: scale not given here; details: dose 6.3 g ai/10a, 21st day after application
Summary of the method: as §7

[30] = tested on: green foxtail (Se); experiment: as above; type: in vivo; design: scale not given here; details: dose 6.3 g ai/10a, 21st day after application
Summary of the method: as §7

[31] = tested on: pale smartweed (Po); experiment: as above; type: in vivo; design: scale not given here; details: dose 6.3 g ai/10a, 21st day after application
Summary of the method: as §7

[32] = tested on: slender amaranth (Am); experiment: as above; type: in vivo; design: scale not given here; details: dose 6.3 g ai/10a, 21st day after application
Summary of the method: as §7

[33] = tested on: soybean (Gl); experiment: Test Example 6: crop plant selectivity by upland field soil treatment (soybean), phytotoxicity; type: in vivo; design: scale not given here; details: dose 6.3 g ai/10a, 21st day after application
Summary of the method: (§8)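 Seeds are sown in sand and covered with soil. The soil is treated with test compound. Pots are kept in a greenhouse. Weed control and soybean damage are rated visually 21 days after application.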

[34] = tested on: China jute (Ab); experiment: Test Example 6: crop plant selectivity by upland field soil treatment (soybean), herbicidal effects; type: in vivo; design: scale not given here; details: dose 6.3 g ai/10a, 21st day after application
Summary of the method: as §8

[35] = tested on: common lambsquarters (Ch); experiment: as above; type: in vivo; design: scale not given here; details: dose 6.3 g ai/10a, 21st day after application
Summary of the method: as §8

[36] = tested on: green foxtail (Se); experiment: as above; type: in vivo; design: scale not given here; details: dose 6.3 g ai/10a, 21st day after application
Summary of the method: as §8

[37] = tested on: pale smartweed (Po); experiment: as above; type: in vivo; design: scale not given here; details: dose 6.3 g ai/10a, 21st day after application
Summary of the method: as §8

[38] = tested on: slender amaranth (Am); experiment: as above; type: in vivo; design: scale not given here; details: dose 6.3 g ai/10a, 21st day after application
Summary of the method: as §8

[39] = tested on: corn (Ze); experiment: Test Example 7: crop plant selectivity by upland field soil treatment (corn), phytotoxicity; type: in vivo; design: scale not given here; details: dose 6.3 g ai/10a, 21st day after application
Summary of the method: (§9)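 Values are ratings of herbicidal effect and phytotoxicity on a standard scale, taken 21 days after application. Test species were sown together with corn in sand-filled pots, covered with soil, and grown in a greenhouse.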

[40] = tested on: China jute (Ab); experiment: Test Example 7: crop plant selectivity by upland field soil treatment (corn), herbicidal effects; type: in vivo; design: scale not given here; details: dose 6.3 g ai/10a, 21st day after application
Summary of the method: as §9

[41] = tested on: common lambsquarters (Ch); experiment: as above; type: in vivo; design: scale not given here; details: dose 6.3 g ai/10a, 21st day after application
Summary of the method: as §9

[42] = tested on: green foxtail (Se); experiment: as above; type: in vivo; design: scale not given here; details: dose 6.3 g ai/10a, 21st day after application
Summary of the method: as §9

[43] = tested on: pale smartweed (Po); experiment: as above; type: in vivo; design: scale not given here; details: dose 6.3 g ai/10a, 21st day after application
Summary of the method: as §9

[44] = tested on: slender amaranth (Am); experiment: as above; type: in vivo; design: scale not given here; details: dose 6.3 g ai/10a, 21st day after application
Summary of the method: as §9

[45] = evaluated on the 21st day after application
[46] = 100 g active ingredient per 10 ares, evaluated 14th day after treatment
[47] = 21st day after the application, index 0-5 of Table 47
[48] = 100 g of the active ingredient per 10 ares, evaluated on the 14th day after treatment

Cn1c(C(F)(F)F)ccc(-c2cc3c(cc2F)OCC(=O)N3CC#N)c1=O [Compound 2-17]
Herbicidal effects Ec [1]: 5
Herbicidal effects Sc [2]: 5
Herbicidal effects Mo [3]: 5
Herbicidal effects Di [4, 45]: 5
Herbicidal effects Ec [5, 45]: 5
Herbicidal effects Ch [6, 45]: 5
Herbicidal effects Po [7, 45]: 5
Herbicidal effects Ci [8, 45]: 5
Herbicidal effects Am [9, 45]: 5
Herbicidal effects Di [10, 46]: 5
Herbicidal effects Ec [11, 46]: 5
Herbicidal effects Ch [12, 46]: 5
Herbicidal effects Po [13, 46]: 5
Herbicidal effects Ci [14, 46]: 5
Herbicidal effects Am [15, 46]: 5
Phytotoxicity Ze [16]: 2
Herbicidal effects Ab [17]: 5
Herbicidal effects Ch [18]: 5
Herbicidal effects Po [19]: 5
Herbicidal effects Am [20]: 5

CSc1cc(-c2ccc(C(F)(F)F)n(C)c2=O)c(F)cc1Cl [Compound No. 1-87, 3-(4-chloro-2-fluoro-5-methylthiophenyl)-1-methyl-6-trifluoromethyl-2(1H)-pyridone]
Herbicidal effects Ec [1]: 5
Herbicidal effects Sc [2]: 5
Herbicidal effects Mo [3]: 5
Herbicidal effects Di [4, 47]: 5
Herbicidal effects Ec [5, 47]: 5
Herbicidal effects Ch [6, 47]: 5
Herbicidal effects Po [7, 47]: 5
Herbicidal effects Ci [8, 47]: 5
Herbicidal effects Am [9, 47]: 5
Herbicidal effects Di [10, 48]: 5
Herbicidal effects Ec [11, 48]: 5
Herbicidal effects Ch [12, 48]: 5
Herbicidal effects Po [13, 48]: 5
Herbicidal effects Ci [14, 48]: 5
Herbicidal effects Am [15, 48]: 5
Phytotoxicity Go [21]: 1
Herbicidal effects Ab [22]: 5
Herbicidal effects Ch [23]: 5
Herbicidal effects Se [24]: 5
Herbicidal effects Po [25]: 5
Herbicidal effects Am [26]: 5
Phytotoxicity Tr [27]: 1
Herbicidal effects Ab [28]: 5
Herbicidal effects Ch [29]: 5
Herbicidal effects Se [30]: 5
Herbicidal effects Po [31]: 5
Herbicidal effects Am [32]: 5
Phytotoxicity Gl [33]: 1
Herbicidal effects Ab [34]: 5
Herbicidal effects Ch [35]: 5
Herbicidal effects Se [36]: 5
Herbicidal effects Po [37]: 5
Herbicidal effects Am [38]: 5
Phytotoxicity Ze [39]: 1
Herbicidal effects Ab [40]: 5
Herbicidal effects Ch [41]: 5
Herbicidal effects Se [42]: 5
Herbicidal effects Po [43]: 5
Herbicidal effects Am [44]: 5

From patent publication US6472348B1, “Pyridone derivatives and herbicides” (Kumiai Chemical Industry Co., Ltd., priority 1996, dated 2002)
